The values that follow come from patent US10611750B2, “Tetrahydroquinoline compositions as bet bromodomain inhibitors” (FORMA Therapeutics, Inc., priority 2013, dated 2020).

The target of test [1] is T1, BRD4 Bromodomain 1 (BRD4 BD1) (Homo sapiens, UniProt O60885).
T1 construct: 44-168 and BRD4 BD2
Nature of the test: AlphaScreen binding assay, BRD4 BD1. The conditions noted are these: His-tagged BRD4 BD1 50 nM, biotinylated H4 (1-21) K5/8/12/16 tetra-acetylated peptide 50 nM, compounds listed under IC50 range headings. How it is done:
The binding of Example compounds to BRD4 Bromodomain 1 and BRD4 Bromodomain 2 was assessed using 384-well AlphaScreen assay technology. His-epitope tagged BRD4 BD144-168 and BRD4 BD2333-460 were cloned, expressed, and purified to homogeneity. BRD4 BD1 and BRD4 BD2 binding and inhibition was assessed by monitoring the engagement of biotinylated Histone H4 (1-21) K5/8/12/16 tetra-acetylated peptide with the targets using the AlphaScreen technology (PerkinElmer). Specifically, in a 384-well black or white flat bottom plate, BRD4 BD1 (50 nM final) or BRD4 BD2 (100 nM final) was combined with peptide (50 nM final for BD1 or 100 nM final for BD2) in 50 mM HEPES (pH 7.3), 100 mM NaCl, 0.1% (w/v) BSA, and 0.01% (w/v) Triton X-100 either in the presence of DMSO (final 1.25% DMSO) or compound dilution series in DMSO. Alpha streptavidin donor beads and Nickel-chelate acceptor beads were added to a final concentration of 10 μg/ml each. After a minimum of 1 hour equilibration, plates were read on a BMG PHERAstar FS multi-label reader (BMG LabTech). The half maximal inhibitory concentration (IC50) values were calculated using IDBS Activity Base software with a four parameter logistic curve fit by the equation y=A+((B−A)/(1+((C/x)^D))), wherein A denotes the bottom plateau of the curve, B denotes the top plateau of the curve, C denotes the x value at the middle of the curve, D denotes the slope factor, x denotes the original known x values, and y denotes the original known y values. Data was fitted using the Levenburg Marquardt algorithm.
Background: Bead proximity is the source of the signal in Alpha formats.

Test [2] concerns acute myelocytic leukemia (AML) cell line MV4-11. Nature of the test: Oncology cell growth assay (3-day proliferation, CellTiter-Glo). It counts as cell-based. The following applies: Homo sapiens, MV4-11, 72 h, MV4-11 cells, 3000 cells/well, compounds listed under IC50 range headings, read-out: MV411 IC50 (gIC50, inhibition of proliferation). Here is the method:
The impact of Example compounds on cancer cell proliferation was determined using the acute myelocytic leukemia (AML) cell line MV4-11 (ATCC) in a 3-day proliferation assay. MV4-11 cells were maintained in RPMI 1640 media supplemented with 10% FBS at 37° C. and an atmosphere of 5% CO2. For compound testing, compound dilutions series were prepared in DMSO via a 3-fold serial dilution from 2 mM to 0.001 mM in 384-well white flat bottom plates. The final compound concentrations in the wells were 10, 3.3, 1.1, 0.37, 0.12, 0.041, 0.013 and 0.0045 μM. MV4-11 cells were plated at a density of 3000 cells/well in final volume of 50 μl culture media and incubated for 72 hours. […] Luminescent signal from the CellTiter-Glo assay was read on an EnVision multilabel plate reader (PerkinElmer). Values for the concentration that inhibited cell growth by 50% (gIC50) between the DMSO control and background control (no cells) were determined using IDBS Activity Base software with a four parameter logistic curve fit by the equation y=A+((B−A)/(1+((C/x)^D))), wherein A denotes the bottom plateau of the curve, B denotes the top plateau of the curve, C denotes the x value at the middle of the curve, D denotes the slope factor, x denotes the original known x values, and y denotes the original known y values. Data was fitted using the Levenburg Marquardt algorithm.
Background: Cellular ATP, detected with luciferase, serves as a proxy for viable cell number.

Each structure is given as a SMILES string.

Turning to `C[C@H]1CCc2c(ccc(-c3cnn(C4CCNCC4)c3)c2Oc2ccc(F)c(F)c2)N1C(=O)C1CC1` [I-172, (S)-cyclopropyl(5-(3,4-difluorophenoxy)-2-methyl-6-(1-(piperidin-4-yl)-1H-pyrazol-4-yl)-3,4-dihydroquinolin-1(2H)-yl)methanone], the IC50 is 100 to 1000 nM in test [1] and less than 500 nM in test [2].

Take `C[C@H]1CCc2c(ccc(-c3cnn(C4CNC4)c3)c2Oc2cccc(F)c2)N1C(=O)C1CC1` [I-173, (S)-(6-(1-(azetidin-3-yl)-1H-pyrazol-4-yl)-5-(3-fluorophenoxy)-2-methyl-3,4-dihydroquinolin-1(2H)-yl)(cyclopropyl)methanone]: the IC50 in test [1] was 100 to 1000 nM; in test [2] it was less than 500 nM.

As for `C[C@H]1CCc2c(ccc(-c3cnn(C4CNC4)c3)c2Oc2ccc(F)c(F)c2)N1C(=O)C1CC1` [I-174, (S)-(6-(1-(azetidin-3-yl)-1H-pyrazol-4-yl)-5-(3,4-difluorophenoxy)-2-methyl-3,4-dihydroquinolin-1(2H)-yl)(cyclopropyl)methanone], the IC50 in test [1] was 100 to 1000 nM; in test [2], less than 500 nM.

For the molecule `C[C@H]1CCc2c(ccc(-c3cnn(C4CNC4)c3)c2Oc2ccccc2)N1C(=O)C1CC1` [I-175, (S)-(6-(1-(azetidin-3-yl)-1H-pyrazol-4-yl)-2-methyl-5-phenoxy-3,4-dihydroquinolin-1(2H)-yl)(cyclopropyl)methanone], the IC50 was 100 to 1000 nM in test [1] and less than 500 nM in test [2].

`COC(=O)N1c2ccc(-c3cnn(C4CCNCC4)c3)c(Oc3ccc(F)c(F)c3)c2CC[C@@H]1C` [I-176, (S)-methyl 5-(3,4-difluorophenoxy)-2-methyl-6-(1-(piperidin-4-yl)-1H-pyrazol-4-yl)-3,4-dihydroquinoline-1(2H)-carboxylate]: the IC50 in test [1] is 100 to 1000 nM; in test [2] it was less than 500 nM.

As for `COC(=O)N1c2ccc(-c3cnn(C4CNC4)c3)c(Oc3cccc(Cl)c3)c2CC[C@@H]1C` [I-177, (S)-methyl 6-(1-(azetidin-3-yl)-1H-pyrazol-4-yl)-5-(3-chlorophenoxy)-2-methyl-3,4-dihydroquinoline-1(2H)-carboxylate], the IC50 is 100 to 1000 nM in test [1] and less than 500 nM in test [2].

For the molecule `C[C@H]1CCc2c(ccc(-c3cnn(C4CNC4)c3)c2Oc2cccc(Cl)c2)N1C(=O)C1CC1` [I-178, (S)-(6-(1-(azetidin-3-yl)-1H-pyrazol-4-yl)-5-(3-chlorophenoxy)-2-methyl-3,4-dihydroquinolin-1 (2H)-yl)(cyclopropyl)methanone], the figures for the IC50 in test [1] and in test [2] were 100 to 1000 nM and less than 500 nM, respectively.

Take `C[C@H]1CCc2c(ccc(-c3cnn(C4CCNCC4)c3)c2Oc2cccc(Cl)c2)N1C(=O)C1CC1` [I-179, (S)-(5-(3-chlorophenoxy)-2-methyl-6-(1-(piperidin-4-yl)-1H-pyrazol-4-yl)-3,4-dihydroquinolin-1 (2H)-yl)(cyclopropyl)methanone]: the IC50 in test [1] was 100 to 1000 nM; in test [2], less than 500 nM.

`COC(=O)N1c2ccc(-c3cnn(C4CNC4)c3)c(Oc3cc(F)cc(F)c3)c2CC[C@@H]1C` [I-180, (S)-methyl 6-(1-(azetidin-3-yl)-1H-pyrazol-4-yl)-5-(3,5-difluorophenoxy)-2-methyl-3,4-dihydroquinoline-1(2H)-carboxylate]: the figures for the IC50 in test [1] and in test [2] were 100 to 1000 nM and less than 500 nM, respectively.

In the case of `C[C@H]1CCc2c(ccc(-c3cnn(C4CNC4)c3)c2Oc2cc(F)cc(F)c2)N1C(=O)C1CC1` [I-181, (S)-(6-(1-(azetidin-3-yl)-1H-pyrazol-4-yl)-5-(3,5-difluorophenoxy)-2-methyl-3,4-dihydroquinolin-1(2H)-yl)(cyclopropyl)methanone], the IC50 in test [1] is 100 to 1000 nM; in test [2], less than 500 nM.

Regarding `COC(=O)N1c2ccc(-c3cnn(C4CCNCC4)c3)c(Oc3cc(F)cc(F)c3)c2CC[C@@H]1C` [I-182, (S)-methyl 5-(3,5-difluorophenoxy)-2-methyl-6-(1-(piperidin-4-yl)-1H-pyrazol-4-yl)-3,4-dihydroquinoline-1(2H)-carboxylate], the IC50 in test [1] was 100 to 1000 nM; in test [2], less than 500 nM.

Regarding `C[C@H]1CCc2c(ccc(-c3cnn(C4CCNCC4)c3)c2Oc2cc(F)cc(F)c2)N1C(=O)C1CC1` [I-183, (S)-cyclopropyl(5-(3,5-difluorophenoxy)-2-methyl-6-(1-(piperidin-4-yl)-1H-pyrazol-4-yl)-3,4-dihydroquinolin-1(2H)-yl)methanone], the results for the IC50 in test [1] and in test [2] were 100 to 1000 nM and less than 500 nM, respectively.

On to `C[C@H]1CCc2c(ccc(-c3nnc(N)s3)c2Oc2ccccc2)N1C(=O)C1CC1` [I-184, (S)-(6-(5-amino-1,3,4-thiadiazol-2-yl)-2-methyl-5-phenoxy-3,4-dihydroquinolin-1(2H)-yl)(cyclopropyl)methanone], for which the IC50 in test [1] is 100 to 1000 nM; in test [2], less than 500 nM.

Turning to `COC(=O)N1c2ccc(-c3cnn(C4CC5CNCC5C4)c3)c(Oc3ccc(F)cc3)c2CC[C@@H]1C` (stereo partly drawn) [I-186, (2S)-methyl 5-(4-fluorophenoxy)-2-methyl-6-(1-(octahydrocyclopenta[c]pyrrol-5-yl)-1H-pyrazol-4-yl)-3,4-dihydroquinoline-1(2H)-carboxylate], the IC50 is 100 to 1000 nM in test [1] and less than 500 nM in test [2].

Consider `C[C@H]1CCc2c(ccc(-c3c[nH]nn3)c2Oc2ccccc2)N1C(=O)C1CC1` [I-187, (S)-cyclopropyl(2-methyl-5-phenoxy-6-(1H-1,2,3-triazol-4-yl)-3,4-dihydroquinolin-1(2H)-yl)methanone], for which the IC50 is 100 to 1000 nM in test [1] and less than 500 nM in test [2].

Consider `COC(=O)N1c2ccc(-c3cnn(C4CNC4)c3)c(Oc3ccc(F)c(F)c3)c2CC[C@@H]1C` [I-192, (S)-methyl 6-(1-(azetidin-3-yl)-1H-pyrazol-4-yl)-5-(3,4-difluorophenoxy)-2-methyl-3,4-dihydroquinoline-1(2H)-carboxylate], for which the IC50 in test [1] is 100 to 1000 nM; in test [2], less than 500 nM.

Take `COC(=O)N1c2ccc(-c3cnn(C4CNC4)c3)c(Oc3ccccc3)c2CC[C@@H]1C` [I-193, (S)-methyl 6-(1-(azetidin-3-yl)-1H-pyrazol-4-yl)-2-methyl-5-phenoxy-3,4-dihydroquinoline-1(2H)-carboxylate]: the results for the IC50 in test [1] and in test [2] were 100 to 1000 nM and less than 500 nM, respectively.

For `COc1ccccc1Oc1c(-c2cnn(C3CCNCC3)c2)ccc2c1CC[C@H](C)N2C(=O)C1CC1` [I-194, (S)-cyclopropyl(5-(2-methoxyphenoxy)-2-methyl-6-(1-(piperidin-4-yl)-1H-pyrazol-4-yl)-3,4-dihydroquinolin-1(2H)-yl)methanone], the IC50 in test [1] was 100 to 1000 nM; in test [2], less than 500 nM.

For the molecule `COc1cccc(Oc2c(-c3cnn(C4CCNCC4)c3)ccc3c2CC[C@H](C)N3C(=O)C2CC2)c1` [I-195, (S)-cyclopropyl(5-(3-methoxyphenoxy)-2-methyl-6-(1-(piperidin-4-yl)-1H-pyrazol-4-yl)-3,4-dihydroquinolin-1(2H)-yl)methanone], the IC50 in test [1] is 100 to 1000 nM; in test [2], less than 500 nM.

`COc1ccc(Oc2c(-c3cnn(C4CCNCC4)c3)ccc3c2CC[C@H](C)N3C(=O)C2CC2)cc1` [I-196, (S)-cyclopropyl(5-(4-methoxyphenoxy)-2-methyl-6-(1-(piperidin-4-yl)-1H-pyrazol-4-yl)-3,4-dihydroquinolin-1(2H)-yl)methanone]: the IC50 in test [1] was 100 to 1000 nM; in test [2], less than 500 nM.

Regarding `COC(=O)N1c2ccc(-c3cnn(C4CCNCC4)c3)c(Oc3ccccc3OC)c2CC[C@@H]1C` [I-197, (S)-methyl 5-(2-methoxyphenoxy)-2-methyl-6-(1-(piperidin-4-yl)-1H-pyrazol-4-yl)-3,4-dihydroquinoline-1(2H)-carboxylate], the IC50 was 100 to 1000 nM in test [1] and less than 500 nM in test [2].
